Assays:
EGFR tyrosine kinase = target: T1, EGFR tyrosine kinase (Homo sapiens, UniProt P00533); test: Protein tyrosine kinase phosphorylation assay, Test (a), EGFR; format: biochemical; details: recombinant intracellular fragment, ATP at Km; read-out: IC50 Test (a): Inhibition of EGFR tyrosine kinase protein phosphorylation
T1 construct: Recombinant intracellular fragments of EGFR, erbB2 and erbB4; made in house; host or cells: baculovirus/Sf21 insect cells (cleared lysate used)
Procedure: (§1) This test measures the ability of a test compound to inhibit the phosphorylation of a tyrosine containing polypeptide substrate by EGFR and erbB2 tyrosine kinase enzyme.
(§2) Recombinant intracellular fragments of EGFR, erbB2 and erbB4 (accession numbers X00588, X03363 and L07868 respectively) were cloned and expressed in the baculovirus/Sf21 system. Lysates were prepared from these cells by treatment with ice-cold lysis buffer (20 mM N-2-hydroxyethylpiperizine-N′-2-ethanesulfonic acid (HEPES) pH 7.5, 150 mM NaCl, 10% glycerol, 1% Triton X-100, 1.5 mM MgCl2, 1 mM ethylene glycol-bis(β-aminoethyl ether) N′,N′,N′,N′-tetraacetic acid (EGTA), plus protease inhibitors and then cleared by centrifugation.
Constitutive kinase activity of the recombinant protein was determined by its ability to phosphorylate a synthetic peptide (made up of a random co-polymer of Glutamic Acid, Alanine and Tyrosine in the ratio of 6:3:1). Specifically, Maxisorb™ 96-well immunoplates were coated with synthetic peptide (0.2 μg of peptide in a 100 μl phosphate buffered saline (PBS) solution and incubated at 4° C. overnight). Plates were washed in PBS-T (phosphate buffered saline with 0.5% Tween 20) then in 50 mM HEPES pH 7.4 at room temperature to remove any excess unbound synthetic peptide. […]
The immobilised phospho-peptide product of the reaction was detected by immunological methods. […] After further washing, HRP activity in each well of the plate was measured colorimetrically using 22′-Azino-di-[3-ethylbenzthiazoline sulfonate (6)] diammonium salt crystals (ABTS™ from Roche) as a substrate.
(§3) Quantification of colour development and thus enzyme activity was achieved by the measurement of absorbance at 405 nm on a Molecular Devices ThermoMax microplate reader. Kinase inhibition for a given compound was expressed as an IC50 value. […] The range of phosphorylation was calculated from the positive (vehicle plus ATP) and negative (vehicle minus ATP) control values.

erbB2 = target: T2, erbB2 (Homo sapiens, UniProt P04626); test: Clone 24 phospho-erbB2 cell assay, Test (e); format: cell-based; details: MCF7 derived Clone 24 cells, 4 hrs; read-out: IC50 Test (e): Inhibition of erbB2 tyrosine kinase protein phosphorylation
T2 construct: to give a cell line that overexpresses full length wild type erbB2 protein; expressed in transfected cells; host or cells: MCF7 (breast carcinoma) derived 'Clone 24' cells
Procedure: This immunofluorescence end point assay measures the ability of a test compound to inhibit the phosphorylation of erbB2 in a MCF7 (breast carcinoma) derived cell line which was generated by transfecting MCF7 cells with the full length erbB2 gene using standard methods to give a cell line that overexpresses full length wild type erbB2 protein (hereinafter ‘Clone 24’ cells).
Clone 24 cells were cultured in Growth Medium (phenol red free Dulbecco's modified Eagle's medium (DMEM) containing 10% foetal bovine serum, 2 mM glutamine and 1.2 mg/ml G418) in a 7.5% CO2 air incubator at 37° C. Cells were harvested from T75 stock flasks by washing once in PBS (phosphate buffered saline, pH 7.4, Gibco No. 10010-015) and harvested using 2 mls of Trypsin (1.25 mg/ml)/ethylaminediaminetetraacetic acid (EDTA) (0.8 mg/ml) solution. The cells were resuspended in Growth Medium. Cell density was measured using a haemocytometer and viability was calculated using Trypan Blue solution before being further diluted in Growth Medium and seeded at a density of 1×10^4 cells per well (in 100 ul) into clear bottomed 96 well plates (Packard, No. 6005182).
3 days later, Growth Medium was removed from the wells and replaced with 100 ul Assay Medium (phenol red free DMEM, 2 mM glutamine, 1.2 mg/ml G418) either with or without erbB inhibitor compound. Plates were returned to the incubator for 4 hrs and then 20 μl of 20% formaldehyde solution in PBS was added to each well and the plate was left at room temperature for 30 minutes. This fixative solution was removed with a multichannel pipette, 100 μl of PBS was added to each well and then removed with a multichannel pipette and then 50 μl PBS was added to each well. Plates were then sealed and stored for up to 2 weeks at 4° C.
Immunostaining was performed at room temperature. Wells were washed once with 200 μl PBS/Tween 20 (made by adding 1 sachet of PBS/Tween dry powder (Sigma, No. P3563) to 1 L of double distilled H2O) using a plate washer then 200 μl Blocking Solution (5% Marvel dried skimmed milk (Nestle) in PBS/Tween 20) was added and incubated for 10 minutes. Blocking Solution was removed using a plate washer and 200 μl of 0.5% Triton X-100/PBS was added to permeabalise the cells. After 10 minutes, the plate was washed with 200 μl PBS/Tween 20 and then 200 μl Blocking Solution was added once again and incubated for 15 minutes. […]
The Fluorescence signal is each well was measured using an Acumen Explorer Instrument (Acumen Bioscience Ltd.), a plate reader that can be used to rapidly quantitate features of images generated by laser-scanning. […]

erbB2 tyrosine kinase = target: T3, erbB2 tyrosine kinase (Homo sapiens, UniProt P04626); test: Protein tyrosine kinase phosphorylation assay, Test (a), erbB2; format: biochemical; details: recombinant intracellular fragment, ATP at Km; read-out: IC50 Test (a): Inhibition of erbB2 tyrosine kinase protein phosphorylation
T3 construct: Recombinant intracellular fragments of EGFR, erbB2 and erbB4; made in house; host or cells: baculovirus/Sf21 insect cells (cleared lysate used)
Procedure: as §1, §2
Constitutive kinase activity of the recombinant protein was determined by its ability to phosphorylate a synthetic peptide (made up of a random co-polymer of Glutamic Acid, Alanine and Tyrosine in the ratio of 6:3:1). Specifically, Maxisorb™ 96-well immunoplates were coated with synthetic peptide (0.2 μg of peptide in a 100 μl phosphate buffered saline (PBS) solution and incubated at 4° C. overnight). Plates were washed in PBS-T (phosphate buffered saline with 0.5% Tween 20) then in 50 mM HEPES pH 7.4 at room temperature to remove any excess unbound synthetic peptide. EGFR, ErbB2 or ErbB4 tyrosine kinase activity was assessed by incubation in peptide coated plates for 20 minutes at 22° C. in 100 mM HEPES pH 7.4, adenosine trisphosphate (ATP) at Km concentration for the respective enzyme, 10 mM MnCl2, 0.1 mM Na3VO4, 0.2 mM DL-dithiothreitol (DTT), 0.1% Triton X-100 with test compound in DMSO (final concentration of 2.5%). Reactions were terminated by the removal of the liquid components of the assay followed by washing of the plates with PBS-T.
The immobilised phospho-peptide product of the reaction was detected by immunological methods. Firstly, plates were incubated for 90 minutes at room temperature with anti-phosphotyrosine primary antibodies that were raised in the mouse (4G10 from Upstate Biotechnology). Following extensive washing, plates were treated with Horseradish Peroxidase (HRP) conjugated sheep anti-mouse secondary antibody (NXA931 from Amersham) for 60 minutes at room temperature. After further washing, HRP activity in each well of the plate was measured colorimetrically using 22′-Azino-di-[3-ethylbenzthiazoline sulfonate (6)] diammonium salt crystals (ABTS™ from Roche) as a substrate.
as §3

KB cells = test: EGFR driven KB cell proliferation assay, Test (b); format: cell-based; details: Homo sapiens, 96 h, EGF 1 ng/ml, 4 days, MTT
Procedure: This assay measures the ability of a test compound to inhibit the proliferation of KB cells (human naso-pharangeal carcinoma obtained from the American Type Culture Collection (ATCC).
KB cells (human naso-pharangeal carcinoma obtained from the ATCC were cultured in Dulbecco's modified Eagle's medium (DMEM) containing 10% foetal calf serum, 2 mM glutamine and non-essential amino acids at 37° C. in a 7.5% CO2 air incubator. Cells were harvested from the stock flasks using Trypsin/ethylaminediaminetetraacetic acid (EDTA). Cell density was measured using a haemocytometer and viability was calculated using trypan blue solution before being seeded at a density of 1.25×10^3 cells per well of a 96 well plate in DMEM containing 2.5% charcoal stripped serum, 1 mM glutamine and non-essential amino acids at 37° C. in 7.5% CO2 and allowed to settle for 4 hours.
Following adhesion to the plate, the cells are treated with or without EGF (final concentration of 1 ng/ml) and with or without compound at a range of concentrations in dimethylsulfoxide (DMSO) (0.1% final) before incubation for 4 days. Following the incubation period, cell numbers were determined by addition of 50 μl of 3-(4,5-Dimethylthiazol-2-yl)-2,5-diphenyltetrazolium bromide (MTT) (stock 5 mg/ml) for 2 hours. MTT solution was then tipped off, the plate gently tapped dry and the cells dissolved upon the addition of 100 μl of DMSO.
Absorbance of the solubilised cells was read at 540 nm using a Molecular Devices ThermoMax microplate reader. Inhibition of proliferation was expressed as an IC50 value. This was determined by calculation of the concentration of compound that was required to give 50% inhibition of proliferation. The range of proliferation was calculated from the positive (vehicle plus EGF) and negative (vehicle minus EGF) control values.

T2 sequence (P04626 23-1255): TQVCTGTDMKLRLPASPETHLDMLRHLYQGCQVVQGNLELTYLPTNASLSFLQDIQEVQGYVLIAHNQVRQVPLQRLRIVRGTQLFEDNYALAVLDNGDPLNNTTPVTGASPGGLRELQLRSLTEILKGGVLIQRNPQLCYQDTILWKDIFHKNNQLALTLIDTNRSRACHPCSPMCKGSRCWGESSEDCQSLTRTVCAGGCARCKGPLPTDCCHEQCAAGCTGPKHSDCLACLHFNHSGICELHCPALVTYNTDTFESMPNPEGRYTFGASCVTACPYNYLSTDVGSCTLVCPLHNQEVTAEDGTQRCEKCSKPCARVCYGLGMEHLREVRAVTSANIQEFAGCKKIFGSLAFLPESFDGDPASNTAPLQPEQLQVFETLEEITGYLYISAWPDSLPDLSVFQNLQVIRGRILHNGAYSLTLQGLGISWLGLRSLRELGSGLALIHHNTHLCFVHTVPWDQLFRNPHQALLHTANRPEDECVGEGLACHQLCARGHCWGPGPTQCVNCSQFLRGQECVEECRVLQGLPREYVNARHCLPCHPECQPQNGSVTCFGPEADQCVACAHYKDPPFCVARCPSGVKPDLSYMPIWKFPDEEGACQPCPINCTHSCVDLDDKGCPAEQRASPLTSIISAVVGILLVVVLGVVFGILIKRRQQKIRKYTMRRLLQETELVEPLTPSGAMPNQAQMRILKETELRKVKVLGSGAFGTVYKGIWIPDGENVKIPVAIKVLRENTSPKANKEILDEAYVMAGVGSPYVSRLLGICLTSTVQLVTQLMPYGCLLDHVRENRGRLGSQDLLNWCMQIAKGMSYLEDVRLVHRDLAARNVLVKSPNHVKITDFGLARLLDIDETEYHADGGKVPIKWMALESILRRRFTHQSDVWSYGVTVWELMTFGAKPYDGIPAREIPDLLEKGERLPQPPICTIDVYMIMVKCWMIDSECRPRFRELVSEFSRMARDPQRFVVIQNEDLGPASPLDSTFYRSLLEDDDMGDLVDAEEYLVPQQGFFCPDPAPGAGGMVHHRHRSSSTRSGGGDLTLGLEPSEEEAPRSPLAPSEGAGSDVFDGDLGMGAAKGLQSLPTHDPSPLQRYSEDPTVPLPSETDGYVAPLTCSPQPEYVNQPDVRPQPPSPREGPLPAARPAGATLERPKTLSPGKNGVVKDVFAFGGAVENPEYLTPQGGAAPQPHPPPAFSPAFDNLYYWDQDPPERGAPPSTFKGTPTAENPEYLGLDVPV
T1 sequence (P00533 669-1210 limits assumed): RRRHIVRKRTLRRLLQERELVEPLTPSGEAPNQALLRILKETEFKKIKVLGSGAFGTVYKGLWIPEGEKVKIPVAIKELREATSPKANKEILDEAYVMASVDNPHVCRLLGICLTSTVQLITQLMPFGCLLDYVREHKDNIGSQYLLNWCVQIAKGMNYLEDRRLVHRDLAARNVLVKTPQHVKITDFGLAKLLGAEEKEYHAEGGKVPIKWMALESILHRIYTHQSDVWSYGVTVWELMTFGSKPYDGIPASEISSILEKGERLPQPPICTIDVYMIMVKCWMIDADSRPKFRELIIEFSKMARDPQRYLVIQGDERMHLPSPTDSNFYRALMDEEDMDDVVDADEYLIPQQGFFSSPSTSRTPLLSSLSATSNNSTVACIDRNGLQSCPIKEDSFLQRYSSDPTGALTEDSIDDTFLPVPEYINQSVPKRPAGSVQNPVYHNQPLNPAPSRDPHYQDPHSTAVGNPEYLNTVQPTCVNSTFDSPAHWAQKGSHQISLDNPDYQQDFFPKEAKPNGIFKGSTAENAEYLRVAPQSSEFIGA
T3 sequence (P04626 676-1255 limits assumed): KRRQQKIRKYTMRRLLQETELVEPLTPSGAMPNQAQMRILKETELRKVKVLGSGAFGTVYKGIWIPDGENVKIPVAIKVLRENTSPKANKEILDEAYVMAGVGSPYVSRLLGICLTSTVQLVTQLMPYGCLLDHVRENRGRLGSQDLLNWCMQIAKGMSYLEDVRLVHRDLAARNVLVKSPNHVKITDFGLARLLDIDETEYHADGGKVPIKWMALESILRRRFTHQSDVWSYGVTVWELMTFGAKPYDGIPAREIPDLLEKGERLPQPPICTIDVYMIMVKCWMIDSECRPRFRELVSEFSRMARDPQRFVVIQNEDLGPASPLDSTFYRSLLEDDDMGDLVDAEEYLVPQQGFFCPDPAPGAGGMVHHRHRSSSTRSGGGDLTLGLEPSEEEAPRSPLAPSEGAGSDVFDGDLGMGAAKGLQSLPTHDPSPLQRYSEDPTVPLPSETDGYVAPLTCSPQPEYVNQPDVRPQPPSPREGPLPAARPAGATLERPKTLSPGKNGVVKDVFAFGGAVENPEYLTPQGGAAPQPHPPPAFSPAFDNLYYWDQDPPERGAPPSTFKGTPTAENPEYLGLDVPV

**Q.** With `COc1cc2ncnc(Nc3ccc(F)c(Cl)c3F)c2cc1OC1CCN(C(=O)OCCN2CCCC2)CC1` [Example 4, 4-(3-Chloro-2,4-difluoroanilino)-7-methoxy-6-{[1-{2-(pyrrolidin-1-yl)ethoxycarbonyl}piperidin-4-yl]oxy}quinazoline] as the compound, how does the IC50 (EGFR tyrosine kinase) read?
**A.** Its IC50 is 2 nM.

**Q.** What about the IC50 (erbB2) of the same compound?
**A.** The IC50 was 29 nM.

**Q.** And the IC50 (erbB2 tyrosine kinase)?
**A.** The IC50 was 2 nM.

**Q.** What about the IC50 (KB cells) of the same compound?
**A.** Its IC50 is 15 nM.

**Q.** What does the source list for `COC(=O)N1CCC(Oc2cc3c(Nc4cccc(Cl)c4F)ncnc3cc2OC)CC1` [Example 1, 4-(3-Chloro-2-fluoroanilino)-7-methoxy-6-{[1-(methoxycarbonyl)piperidin-4-yl]oxy}quinazoline]?
**A.** IC50 (EGFR tyrosine kinase): 1 nM; IC50 (erbB2): 9 nM; IC50 (erbB2 tyrosine kinase): 38 nM; IC50 (KB cells): 35 nM

**Q.** Which results are given for `COc1cc2ncnc(Nc3cccc(Cl)c3F)c2cc1OC1CCN(C(=O)OCCN2CCCC2)CC1` [Example 2, 4-(3-Chloro-2-fluoroanilino)-7-methoxy-6-{[1-{2-(pyrrolidin-1-yl)ethoxycarbonyl}piperidin-4-yl]oxy}quinazoline]?
**A.** IC50 (EGFR tyrosine kinase): 4 nM; IC50 (erbB2): 36 nM; IC50 (erbB2 tyrosine kinase): 10 nM; IC50 (KB cells): 9 nM

**Q.** With `COc1cc2ncnc(Nc3cccc(Cl)c3F)c2cc1OC1CCN(C(=O)OCCN2CCCCC2)CC1` [Example 6, 4-(3-Chloro-2-fluoroanilino)-7-methoxy-6-{[1-{2-(piperidin-1-yl)ethoxycarbonyl}piperidin-4-yl]oxy}quinazoline] as the compound, how does the IC50 (erbB2) read?
**A.** Its IC50 is 41 nM.

**Q.** And the IC50 (erbB2 tyrosine kinase)?
**A.** Its IC50 is 2 nM.

**Q.** What about the IC50 (KB cells) of the same compound?
**A.** Its IC50 is 10 nM.
